Measurements from publication PMC11220031, “Structural basis for the inhibition mechanism of LAT1-4F2hc complex by JPH203” (Cell Discovery, 2024).
Positions count from the first letter of the chain named.

What was measured:
Assay in all cases: microscale thermophoresis (MST)
Conditions in all cases: read-out: binding affinity
[1] = target: T1, LAT2–4F2hc complex (Homo sapiens, UniProt Q9UHI5, F250Y)
T1 construct: gene SLC7A8; LAT2–4F2hc heteromeric complex used for MST; construct, host and tags only in supplement; with Amino acid transporter heavy chain SLC3A2 (4F2 cell-surface antigen heavy chain)
T1 sequence (Q9UHI5 1-535 F250Y): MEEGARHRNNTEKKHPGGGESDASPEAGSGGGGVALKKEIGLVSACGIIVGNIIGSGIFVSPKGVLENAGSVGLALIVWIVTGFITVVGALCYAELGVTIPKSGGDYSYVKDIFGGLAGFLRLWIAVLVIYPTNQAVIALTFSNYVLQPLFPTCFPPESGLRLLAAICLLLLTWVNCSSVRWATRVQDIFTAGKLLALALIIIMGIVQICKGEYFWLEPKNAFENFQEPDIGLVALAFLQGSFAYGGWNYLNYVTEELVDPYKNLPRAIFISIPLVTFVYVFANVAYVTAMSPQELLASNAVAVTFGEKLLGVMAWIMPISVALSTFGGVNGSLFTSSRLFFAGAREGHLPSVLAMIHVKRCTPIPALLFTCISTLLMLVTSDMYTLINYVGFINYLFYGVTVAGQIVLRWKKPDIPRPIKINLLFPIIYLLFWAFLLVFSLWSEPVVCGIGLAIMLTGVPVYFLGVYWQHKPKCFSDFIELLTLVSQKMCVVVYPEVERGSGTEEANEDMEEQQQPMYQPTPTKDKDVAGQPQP
T1 sequence (P08195 2-529 partner): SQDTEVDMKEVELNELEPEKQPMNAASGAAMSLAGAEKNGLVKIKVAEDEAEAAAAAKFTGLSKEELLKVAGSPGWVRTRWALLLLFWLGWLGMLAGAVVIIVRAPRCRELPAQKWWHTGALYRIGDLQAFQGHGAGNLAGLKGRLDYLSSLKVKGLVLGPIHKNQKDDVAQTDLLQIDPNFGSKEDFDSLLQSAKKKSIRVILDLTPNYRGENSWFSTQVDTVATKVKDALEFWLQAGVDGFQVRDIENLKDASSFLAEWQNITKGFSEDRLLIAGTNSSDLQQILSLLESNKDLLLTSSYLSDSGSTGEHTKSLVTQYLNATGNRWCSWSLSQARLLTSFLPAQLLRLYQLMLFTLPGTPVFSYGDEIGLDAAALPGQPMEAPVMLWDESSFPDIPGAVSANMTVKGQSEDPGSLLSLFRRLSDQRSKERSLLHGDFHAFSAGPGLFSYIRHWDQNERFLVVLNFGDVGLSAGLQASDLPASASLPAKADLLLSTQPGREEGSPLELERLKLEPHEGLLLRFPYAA

[2] = target: T2, LAT1–4F2hc complex (Homo sapiens, UniProt Q01650, Y259F)
T2 construct: gene SLC7A5; full-length LAT1–4F2hc heteromeric complex, purified by size-exclusion chromatography; host and tags only in supplement; with Amino acid transporter heavy chain SLC3A2 (4F2 cell-surface antigen heavy chain)

[3] = target: T3, LAT2–4F2hc complex (Homo sapiens, UniProt Q9UHI5)
T3 construct: gene SLC7A8; LAT2–4F2hc heteromeric complex used for MST; construct, host and tags only in supplement; with Amino acid transporter heavy chain SLC3A2 (4F2 cell-surface antigen heavy chain)
T3 sequence (Q9UHI5 1-535): T1 sequence (Q9UHI5 1-535 F250Y) with Y250F
T3 sequence (P08195 2-529 partner): T1 sequence (P08195 2-529 partner)

[4] = target: T4, LAT1–4F2hc complex (Homo sapiens, UniProt Q01650, F400V)
T4 construct: gene SLC7A5; full-length LAT1–4F2hc heteromeric complex, purified by size-exclusion chromatography; host and tags only in supplement; with Amino acid transporter heavy chain SLC3A2 (4F2 cell-surface antigen heavy chain)

[5] = target: T5, LAT1–4F2hc complex (Homo sapiens, UniProt Q01650)
T5 construct: gene SLC7A5; full-length LAT1–4F2hc heteromeric complex, purified by size-exclusion chromatography; host and tags only in supplement; with Amino acid transporter heavy chain SLC3A2 (4F2 cell-surface antigen heavy chain)

[6] = target: T6, LAT2–4F2hc complex (Homo sapiens, UniProt Q9UHI5, V391F)
T6 construct: gene SLC7A8; LAT2–4F2hc heteromeric complex used for MST; construct, host and tags only in supplement; with Amino acid transporter heavy chain SLC3A2 (4F2 cell-surface antigen heavy chain)
T6 sequence (Q9UHI5 1-535 V391F): T1 sequence (Q9UHI5 1-535 F250Y) with Y250F, V391F
T6 sequence (P08195 2-529 partner): T1 sequence (P08195 2-529 partner)

T2 sequence (Q01650 2-507 Y259F, one chain of several): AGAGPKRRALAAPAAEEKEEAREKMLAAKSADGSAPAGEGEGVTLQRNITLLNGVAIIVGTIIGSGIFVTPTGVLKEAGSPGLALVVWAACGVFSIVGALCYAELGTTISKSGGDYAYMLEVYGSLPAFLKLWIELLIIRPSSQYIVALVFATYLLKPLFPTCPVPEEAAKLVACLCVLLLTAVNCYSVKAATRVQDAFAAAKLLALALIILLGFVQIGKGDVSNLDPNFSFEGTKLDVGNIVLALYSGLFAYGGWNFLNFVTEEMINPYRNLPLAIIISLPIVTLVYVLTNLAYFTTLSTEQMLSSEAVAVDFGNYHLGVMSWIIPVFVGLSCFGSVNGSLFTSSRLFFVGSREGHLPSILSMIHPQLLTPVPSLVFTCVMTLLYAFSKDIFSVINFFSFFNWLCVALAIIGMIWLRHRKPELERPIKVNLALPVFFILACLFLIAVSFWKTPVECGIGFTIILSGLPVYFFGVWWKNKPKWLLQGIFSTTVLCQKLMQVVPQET
T5 sequence (Q01650 2-507, one chain of several): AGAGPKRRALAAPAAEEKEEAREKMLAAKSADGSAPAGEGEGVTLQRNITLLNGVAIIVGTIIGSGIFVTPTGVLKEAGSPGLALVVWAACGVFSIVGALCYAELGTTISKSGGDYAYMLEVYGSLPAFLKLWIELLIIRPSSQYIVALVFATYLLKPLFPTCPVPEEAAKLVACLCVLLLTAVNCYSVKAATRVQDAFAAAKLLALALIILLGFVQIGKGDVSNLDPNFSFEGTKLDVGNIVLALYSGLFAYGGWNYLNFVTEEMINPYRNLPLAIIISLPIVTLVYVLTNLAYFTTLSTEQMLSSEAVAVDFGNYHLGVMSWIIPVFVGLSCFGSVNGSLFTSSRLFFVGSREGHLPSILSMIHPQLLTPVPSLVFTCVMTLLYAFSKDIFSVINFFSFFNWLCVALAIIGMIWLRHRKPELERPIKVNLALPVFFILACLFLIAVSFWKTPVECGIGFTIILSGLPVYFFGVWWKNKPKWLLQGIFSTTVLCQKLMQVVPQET
T4 sequence (Q01650 2-507 F400V, one chain of several): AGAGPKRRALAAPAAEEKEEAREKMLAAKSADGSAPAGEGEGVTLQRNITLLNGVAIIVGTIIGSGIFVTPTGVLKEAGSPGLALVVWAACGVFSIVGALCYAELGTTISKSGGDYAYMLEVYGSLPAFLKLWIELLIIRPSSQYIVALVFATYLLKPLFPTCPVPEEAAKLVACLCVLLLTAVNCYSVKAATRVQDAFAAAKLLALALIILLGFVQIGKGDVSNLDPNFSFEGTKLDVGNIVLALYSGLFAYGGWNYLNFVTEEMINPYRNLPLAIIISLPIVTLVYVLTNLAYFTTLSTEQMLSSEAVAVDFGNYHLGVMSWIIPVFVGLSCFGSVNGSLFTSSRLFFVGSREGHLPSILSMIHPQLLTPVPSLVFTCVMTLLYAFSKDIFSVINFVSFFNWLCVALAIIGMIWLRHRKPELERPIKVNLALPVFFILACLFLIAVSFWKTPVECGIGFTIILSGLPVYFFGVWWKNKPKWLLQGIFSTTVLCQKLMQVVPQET

Kd [1]: 2.55 ± 0.96 µM | Kd [2]: 3.81 ± 1.26 µM | Kd [3]: 4.51 ± 1.35 µM | Kd [4]: 6.21 ± 1.58 µM | Kd [5]: 1.48 ± 0.28 µM | Kd [6]: 1.78 ± 0.65 µM
Compound: Nc1cc(COc2c(Cl)cc(C[C@H](N)C(=O)O)cc2Cl)c2oc(-c3ccccc3)nc2c1 [JPH203]
